Measured values published in article PMC10150354, “Linearization of the Brevicidine and Laterocidine Lipopeptides Yields Analogues That Retain Full Antibacterial Activity” (Journal of Medicinal Chemistry, 2023).
≈ marks a conversion by molar mass, not a printed value. Where a SMILES comes first, the peptide text is derived from it. [ ]: non-standard residue; d: D form. The star is where a group is joined. ξ: configuration not given here. Octanoyl(7-Me) = CC(C)CCCCCC(=O)*; Hexanoyl(4ξ-Me) = CCC(C)CCC(=O)*; dOrn = NCCC[C@@H](N)C(=O)O; Orn = NCCC[C@H](N)C(=O)O

Assays:
E. coli (MCR-1) = assay type: cell-based, Escherichia coli; conditions: microbroth dilution per CLSI, MHB, 18 h at 37 °C, visual inspection, three technical replicates, E. coli 25922 carrying mcr-1
Procedure: (§1) Linear laterocidine (LL-OH, 4) and linear brevicidine (LB-OH, 5) were first synthesized by Fmoc SPPS, starting from 2-chlorotrityl (2-CT) chloride resin. The antibacterial activity of these peptides was then compared to brevicidine (1) and laterocidine (2) using minimum inhibitory concentration (MIC)/microbroth dilution assays (Table 1). The MICs of all peptides were determined against a panel of Gram-negative and Gram-positive ESKAPE pathogens. Additionally, a strain of E. coli carrying the mcr-1 gene was included in the panel. The mcr-1 gene is a transferrable plasmid that confers resistance against colistin, a last-resort antibiotic for Gram-negative infections, by reducing the overall negative charge of lipopolysaccharide (LPS) through modification of lipid A with phosphoethanolamine. The propensity for cationic antibiotics to bind to the cell membrane is therefore reduced. This gene has been observed in more than 27 bacterial species over six continents.[26] The spread of the mcr-1 gene could render colistin ineffectual; therefore, novel antibacterials are urgently required to overcome this form of resistance.
(§2) All minimum inhibitory concentrations (MICs) were determined according to Clinical and Laboratory Standards Institute (CLSI) guidelines. Blood agar plates were inoculated with glycerol stocks of E. coli ATCC 25922, K. pneumoniae ATCC 13883, A. baumannii ATCC 17961, P. aeruginosa PAO1, and S. aureus USA300. The inoculated agar plates were then incubated for 16 h at 37 °C. Individually grown colonies were subsequently used to inoculate 5 mL aliquots of TSB that were then incubated at 37 °C with shaking at 220 rpm. E. coli 25922 MCR-1 glycerol stock was used to inoculate 5 mL of TSB supplemented with kanamycin that was then incubated for 16 h at 37 °C with shaking at 220 rpm. The next day the culture was diluted 100-fold in TSB supplemented with kanamycin and incubated at 37 °C with shaking at 220 rpm. In parallel, the lipopeptide antibiotics DMSO stocks to be assessed were serially diluted with MHB in polypropylene 96-well plates (50 μL in each well). Colistin sulfate stocks were dissolved in water before being diluted with MHB. Aliquots of the inoculated TSB were incubated until an OD600 of around 0.5 was reached. The bacterial suspensions were then diluted with MHB (2 × 10^5 CFU/mL) and added to the microplates containing the test compounds (50 μL to each well). The well plates were sealed with an adhesive membrane and after 18 h of incubation at 37 °C with shaking at 600 rpm, the wells were visually inspected for bacterial growth. MIC values reported are based on three technical replicates and defined as the lowest concentration of the compound that prevented visible growth of bacteria.

E. coli ATCC 25922 = assay type: cell-based, Escherichia coli; conditions: for Antibacterial activity (MIC) E. coli ATCC 25922: microbroth dilution per CLSI, MHB, 18 h at 37 °C, visual inspection, three technical replicates
Procedure: as §1, §2

K. pneumoniae ATCC 13883 = assay type: cell-based, Klebsiella pneumoniae; conditions: microbroth dilution per CLSI, MHB, 18 h at 37 °C, visual inspection, three technical replicates
Procedure: as §1, §2

A. baumannii ATCC 17961 = assay type: cell-based, Acinetobacter baumannii; conditions: microbroth dilution per CLSI, MHB, 18 h at 37 °C, visual inspection, three technical replicates
Procedure: as §1, §2

P. aeruginosa PAO1 = assay type: cell-based, Pseudomonas aeruginosa; conditions: microbroth dilution per CLSI, MHB, 18 h at 37 °C, visual inspection, three technical replicates
Procedure: as §1, §2

S. aureus USA300 = assay type: cell-based, Staphylococcus aureus; conditions: microbroth dilution per CLSI, MHB, 18 h at 37 °C, visual inspection, three technical replicates
Procedure: as §1, §2

| Compound | Antibacterial activity (MIC) E. coli (MCR-1) (E. coli (MCR-1)) [µg/mL] | MIC (µg/mL) against E. coli (ATCC 25922) (E. coli ATCC 25922; (Supplement 2)) [µg/mL] | Antibacterial activity (MIC) E. coli ATCC 25922 (E. coli ATCC 25922) [µg/mL] | Antibacterial activity (MIC) K. pneumoniae ATCC 13883 (K. pneumoniae ATCC 13883) [µg/mL] | Antibacterial activity (MIC) A. baumannii ATCC 17961 (A. baumannii ATCC 17961) [µg/mL] | Antibacterial activity (MIC) P. aeruginosa PAO1 (P. aeruginosa PAO1) [µg/mL] | Antibacterial activity (MIC) S. aureus USA300 (S. aureus USA300) [µg/mL] |
| --- | --- | --- | --- | --- | --- | --- | --- |
| CCC(C)CCC(=O)N[C@H](CC(N)=O)C(=O)N[C@H](Cc1ccc(O)cc1)C(=O)N[C@H](Cc1c[nH]c2ccccc12)C(=O)N[C@H](CCCN)C(=O)N[C@@H](CCCN)C(=O)NCC(=O)N[C@H](CCCN)C(=O)N[C@@H](Cc1c[nH]c2ccccc12)C(=O)N[C@@H](CC(=O)O)C(=O)N[C@H](C(=O)NCC(N)=O)[C@@H](C)CC (stereo partly shown) [Δ12LB (Asp9)-NH2 (63)] ({Hexanoyl(4ξ-Me)}-[dN][dY][dW][dOrn][Orn]G[dOrn]WDIG-NH2) | >32 | 4 (≈ 2.73 µM) | >32 | >32 | >32 | 4 | >32 |
| CC[C@H](C)[C@H](NC(=O)[C@@H](NC(=O)[C@H](Cc1c[nH]c2ccccc12)NC(=O)[C@@H](CCCN)NC(=O)CNC(=O)[C@H](CCCN)NC(=O)[C@@H](CCCN)NC(=O)[C@@H](C)NC(=O)[C@@H](Cc1ccc(O)cc1)NC(=O)[C@@H](CO)NC(=O)CCCCCC(C)C)[C@@H](C)O)C(=O)N[C@@H](CC(N)=O)C(=O)NCC(=O)NCC(N)=O [LL(D-Ala3)-NH2 (31)] ({Octanoyl(7-Me)}-[dS][dY][dA][dOrn][Orn]G[dOrn]WTINGG-NH2) | >32 | – | >32 | >32 | >32 | >32 | >32 |
| CC[C@H](C)[C@H](NC(=O)[C@@H](NC(=O)[C@H](C)NC(=O)[C@@H](CCCN)NC(=O)CNC(=O)[C@H](CCCN)NC(=O)[C@@H](CCCN)NC(=O)[C@@H](Cc1c[nH]c2ccccc12)NC(=O)[C@@H](Cc1ccc(O)cc1)NC(=O)[C@@H](CO)NC(=O)CCCCCC(C)C)[C@@H](C)O)C(=O)N[C@@H](CC(N)=O)C(=O)NCC(=O)NCC(N)=O [LL(Ala8)-NH2 (36)] ({Octanoyl(7-Me)}-[dS][dY][dW][dOrn][Orn]G[dOrn]ATINGG-NH2) | >32 | – | >32 | >32 | >32 | 32 | >32 |
| CC[C@H](C)[C@H](NC(=O)[C@H](C)NC(=O)[C@H](Cc1c[nH]c2ccccc12)NC(=O)[C@@H](CCCN)NC(=O)CNC(=O)[C@H](CCCN)NC(=O)[C@@H](CCCN)NC(=O)[C@@H](Cc1c[nH]c2ccccc12)NC(=O)[C@@H](Cc1ccc(O)cc1)NC(=O)[C@@H](CO)NC(=O)CCCCCC(C)C)C(=O)N[C@@H](CC(N)=O)C(=O)NCC(=O)NCC(N)=O [LL(Ala9)-NH2 (37)] ({Octanoyl(7-Me)}-[dS][dY][dW][dOrn][Orn]G[dOrn]WAINGG-NH2) | 4 to 8 | – | 4 | 4 | 8 | 4 | >32 |
| CC(C)CCCCCC(=O)N[C@H](CO)C(=O)N[C@H](Cc1ccc(O)cc1)C(=O)N[C@H](Cc1c[nH]c2ccccc12)C(=O)N[C@H](CCCN)C(=O)N[C@@H](CCCN)C(=O)NCC(=O)N[C@H](CCCN)C(=O)N[C@@H](Cc1c[nH]c2ccccc12)C(N)=O [Δ9–13LL-NH2 (16)] ({Octanoyl(7-Me)}-[dS][dY][dW][dOrn][Orn]G[dOrn]W-NH2) | >32 | – | >32 | >32 | 32 | >32 | >32 |
